Entries after “also recorded” stand apart in the source; their conditions may differ.
Assays:
mitral valve leaflet = experiment: Histological morphometric analysis of mitral valve (thickness, cellularity) in NdF induced mitral remodeling; format: in vivo, mice
Description: (§1) These lesions appear as endothelial cells recruitment and migration into the valvular leaflets with intense production of extracellular matrix.
(§2) Before the start of the experiment, baseline systolic blood pressure, heart rate and body weight were measured. […] The dose of sarpogrelate administered was 2 mg/kg/day. The experiment started two days after the subcutaneous implantation so as to allow the activation of the mini-osmotic pump. Systolic blood pressure, heart rate and body weight were measured each week until the end of the experiment. At the term (day 28), urinary samples were collected from mice to determine 5-hydroxy-indol acetic acid concentration (5-HIAA which is a serotonin metabolite).
For morphometric analysis, one sagittal section (5 μm in thickness) is obtained after paraffin embedding and stained with hematoxylin and eosin stain. In each section, mitral valves are examined and cellularization counted. Extreme care is taken in sectioning the heart so that the valves are mainly cut transversely (with the attachment sides of the leaflets visible on both ends of the valve).
Valve histological morphometric analysis is performed visually using a microscope (Leica DM750®, Germany) with a 40× calibrated objective connected to a camera and a data acquisition and analysis system (Leica/Microsystems®LAS V4.8) by a single operator. Practically, on each section, the operator applies a large square of 250 μm×250 μm divided in 100 equal parts of 25 μm×25 μm each. For the quantification, the whole mitral valve leaflet section is divided in three equal parts. The proximal region is the one nearest the base cusp, followed by the medial and the distal regions. The proximal, medial and distal parts thicknesses are measured on three distinct sites in each region. The mean result is expressed in μm, in table 8.
The density of endothelial cells is evaluated in proximal, medial and distal regions. The numbers of cells is determined on a leaflet length of 25×4 μm (100 μm2). The result (mean) is expressed in number of cells per 100 μm2.

[1] = Blood 5-HT and urine 5-HIAA concentrations in mice given NdF by mini-osmotic pump; format: in vivo
Description: as §1, §2
Then, mice were euthanized using an injection of a […] dose of pentobarbital followed by an intra-cardiac blood puncture and whole blood serotonin concentration was determined.
All plasma was collected and analyzed in a single run.

[2] = Body weight, food intake, water intake, systolic blood pressure and heart rate in the NdF mouse model; format: in vivo, mice; details: for Water intake: estimation of the water intake per cage per day: g = ml
Description: as §2

[3] = target: 5-HT2A receptor compared to the 5-HT2B one (Homo sapiens, UniProt P28223); details: in words; Life Sci. 73, 193-207; cited from earlier work
Chain of 5-HT2A receptor compared to the 5-HT2B one (P28223 whole entry): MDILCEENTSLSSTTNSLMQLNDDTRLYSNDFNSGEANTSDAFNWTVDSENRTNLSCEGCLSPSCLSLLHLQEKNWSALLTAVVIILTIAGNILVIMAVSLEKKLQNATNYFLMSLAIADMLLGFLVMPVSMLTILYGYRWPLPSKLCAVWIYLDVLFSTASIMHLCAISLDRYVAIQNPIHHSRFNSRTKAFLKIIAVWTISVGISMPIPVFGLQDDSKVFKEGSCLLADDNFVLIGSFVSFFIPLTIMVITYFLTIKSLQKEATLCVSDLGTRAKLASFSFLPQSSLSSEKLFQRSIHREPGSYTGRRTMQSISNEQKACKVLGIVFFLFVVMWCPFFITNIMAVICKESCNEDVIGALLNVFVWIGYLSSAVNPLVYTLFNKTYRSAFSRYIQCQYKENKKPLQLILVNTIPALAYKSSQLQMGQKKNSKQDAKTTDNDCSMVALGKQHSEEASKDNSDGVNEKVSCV

C[C@H](N)Cc1cccc(C(F)(F)F)c1 [NdF, nordexfenfluramine]
Mitral valve thickness (mean) (mitral valve leaflet; day 28, mean of proximal, medial and distal parts, NdF 1 mg/kg/day, sarpogrelate 2 mg/kg/day): 67.467 μm
Endothelial cellularity (mean) (mitral valve leaflet; day 28, mitral valve): 9.988 cells/0.01 mm^2
Interstitial cellularity (mean) (mitral valve leaflet; day 28, mitral valve): 22.011 cells/0.01 mm^2
Effect on mitral valve thickness (mitral valve leaflet; in words): massive increase
Effect on valve interstitial cellularity (mitral valve leaflet; in words): increase
Effect on total blood (plasma) concentration of serotonin (5-HT) ([1]; in words): increases
5-HIAA ([1]; urine, day 28, mean, NdF 1 mg/kg/day, sarpogrelate 2 mg/kg/day): 10.62 mg/L
5-HT ([1]; whole blood, day 28, mean, NdF 1 mg/kg/day, sarpogrelate 2 mg/kg/day): 2259.78 µg/L
Body weight ([2]; Week 0 (baseline)): 25.10 g
Heart rate ([2]; Week 0 (baseline)): 539.7 beats/min
Systolic blood pressure ([2]; Week 0 (baseline)): 100.2 mmHg
Body weight ([2]; Week 1): 26.20 g
Food intake: estimation of the food intake for each mouse per week ([2]; Week 1): 32.83 g
Heart rate ([2]; Week 1): 579.5 beats/min
Systolic blood pressure ([2]; Week 1): 108.9 mmHg
Water intake: estimation of the water intake per cage per day ([2]; Week 1): 31.43 g
Food intake: estimation of the food intake for each mouse per week ([2]; Week 2): 30.71 g
Heart rate ([2]; Week 2): 571.8 beats/min
Systolic blood pressure ([2]; Week 2): 97.5 mmHg
Water intake: estimation of the water intake per cage per day ([2]; Week 2): 31.86 g
Body weight ([2]; Week 3): 27.20 g
Food intake: estimation of the food intake for each mouse per week ([2]; Week 3): 35.13 g
Heart rate ([2]; Week 3): 498.0 beats/min
Water intake: estimation of the water intake per cage per day ([2]; Week 3): 32.14 g
Body weight ([2]; Week 4): 26.50 g
Food intake: estimation of the food intake for each mouse per week ([2]; Week 4): 26.38 g
Heart rate ([2]; Week 4): 559.3 beats/min
Systolic blood pressure ([2]; Week 4): 99.5 mmHg
Water intake: estimation of the water intake per cage per day ([2]; Week 4): 33.07 g

COc1cccc(CCc2ccccc2OCC(CN(C)C)OC(=O)CCC(=O)O)c1 (centres unmarked) [sarpogrelate]
Effect on interstitial migration of endothelial cells (mitral valve leaflet; in words): reduces
Effect on mitral valve thickness (mitral valve leaflet; in words): nearly completely prevented; also recorded: markedly reduces
Effect on valve interstitial cellularity (mitral valve leaflet; in words): prevents the increase
Effect on total blood (plasma) concentration of serotonin (5-HT) ([1]; in words): reduces
Effect on urinary 5-HIAA ([1]; in words): reduces
Receptor subtype preference (5-HT2A vs 5-HT2B) [3]: preferably blocking the 5-HT2A receptor

Reference: patent US11116741B2, “Method for the treatment of valvular heart disease comprising administering a composition comprising sarpogrelate” (CEVA SANTE ANIMALE, priority 2017, dated 2021)
